Measurements reported in patent US20240299416A1, “TREATMENT OF NF-kB-MEDIATED DISEASE” (ReveraGen BioPharma, Inc., priority 2021, published 2024).

Tested on: boys with DMD
Assay: VBP15-004 efficacy at Week 48
Assay type: in vivo, human
Conditions: for 6MWT, change from baseline / NSAA, change from baseline / TTRW velocity, change from baseline / TTSTAND velocity, change from baseline: 6 mg/kg/day
Protocol: Subjects already on vamorolone continued on the allocated dose level. Efficacy at Week 48 was assessed by Time to Stand ([…]) velocity, 6-Minute Walk Test (6MWT), Time to Run/Walk 10 meters (TTRW) velocity, and North Star Ambulatory Assessment (NSAA). […] In contrast, the persistence of effects with vamorolone 2 mg/kg/day was less pronounced for some parameters. The safety profile was consistent for subjects who continued on the same dose of vamorolone throughout the study, with no increase in frequency or severity of adverse events being observed over time. […] In addition, vamorolone treatment at both doses reversed the growth impairment seen during prednisone treatment and was associated with fewer adverse events, including those associated with corticosteroid use.

[1] = Treatment Period 2 after switch from prednisone to vamorolone 6 mg/kg/day

## C[C@@H]1C[C@H]2[C@@H]3CCC4=CC(=O)C=C[C@]4(C)C3=CC[C@]2(C)[C@@]1(O)C(=O)CO [Vamorolone, 17α,21-dihydroxy-16α-methylpregna-1,4,9(11)-triene-3,20-dione]
Week 24
  6MWT, change from baseline: 37 meters
  NSAA, change from baseline: 3.4 points
  TTRW velocity, change from baseline: 0.29 m/s
  TTSTAND velocity, change from baseline: 0.052 rises/s
Week 48
  6MWT, change from baseline: 48 meters
  NSAA, change from baseline: 3.5 points
  TTRW velocity, change from baseline: 0.23 m/s
  TTSTAND velocity, change from baseline: 0.045 rises/s
[1]
  6MWT distance: 408 meters
  NSAA: 26.2 points
  TTRW velocity: 2.20 m/s
  TTSTAND velocity: 0.27 rises/s
